Like-named read-outs stand apart in the source and are kept apart here.
Test: single oral dose pharmacokinetic study in healthy and NASH subjects
Format: in vivo, human
Details: for Cmax: po, read-out: Cmax, Mean
Method: The present Example was a randomized, dose ranging, single dose safety and pharmacokinetic study of 25HC3S administered to subjects with NASH and control healthy subjects. […] For each cohort, 10 subjects with NASH were enrolled which were further classified into cirrhotic and non-cirrhotic. Each subject received only one dose of study treatment. The second cohort was dosed after a review of safety and tolerability data from Cohort 1.

CL/F, Mean (200 mg single oral dose, Healthy): 171.25 ± 28.60 L/h
Plasma 25HC3S levels detectable up to, post-dose (Cohort 1 (50 mg) healthy subjects): up to 12 hours
AUC0-inf higher in NASH subjects (Cohort 2): approximately 20%
Geometric mean AUC0-12 and AUC0-last higher in NASH than healthy subjects (Cohort 2): approximately 30%
Plasma 25HC3S levels detectable up to, post-dose (Cohort 2 (200 mg) healthy subjects): up to 16 hours
geometric mean Cmax increase, NASH over healthy subjects (Cohorts 1 and 2): 18-24%
exposure (AUC parameters), increasing trends in NASH subjects (NASH vs healthy): up to 31%
half-life (human, plasma, oral, 200 mg, across both healthy and NASH subject groups, 50 and 200 mg, read-out: T1/2, range of mean values): 100 to 151 min
Cmax (human, plasma, 50 mg, 50 mg single oral dose, Healthy): 94 ± 27.3 ng/mL
Cmax (human, plasma, 200 mg, 200 mg single oral dose, Healthy): 260 ± 54.8 ng/mL
SMILES: C[C@H](CCCC(C)(C)O)[C@H]1CC[C@H]2[C@@H]3CC=C4C[C@@H](OS(=O)(=O)O)CC[C@]4(C)[C@H]3CC[C@]12C [25HC3S, 25-hydroxycholesterol-3-sulfate]
